Reference: publication PMC3423084 (Circulation, 2012)

Experiments:
PAR1 = target: T1, PAR1 (Cavia porcellus, UniProt A0A286XH07); assay: Activation of guinea pig platelets; type: cell-based
T1 sequence (A0A286XH07 24-426): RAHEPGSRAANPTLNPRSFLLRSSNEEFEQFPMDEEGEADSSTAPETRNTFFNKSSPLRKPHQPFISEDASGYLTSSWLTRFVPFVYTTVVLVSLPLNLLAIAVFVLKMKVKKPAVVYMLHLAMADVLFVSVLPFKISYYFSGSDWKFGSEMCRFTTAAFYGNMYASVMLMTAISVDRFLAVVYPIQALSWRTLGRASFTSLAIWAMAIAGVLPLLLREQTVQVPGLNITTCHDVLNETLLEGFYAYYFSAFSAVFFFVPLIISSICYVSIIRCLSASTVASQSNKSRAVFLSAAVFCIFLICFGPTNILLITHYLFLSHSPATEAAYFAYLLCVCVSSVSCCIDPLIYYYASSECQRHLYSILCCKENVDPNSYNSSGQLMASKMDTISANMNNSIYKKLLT

guinea pigs = assay: Guinea pig carotid artery FeCl3 injury arterial thrombosis model; type: in vivo; conditions: clopidogrel 1 mg/kg PO 4 h prior alone, 90 min period, n=5
[1] = human, ref Kosoglou, 2012 #2596, cited from earlier work

`CC(C)C[C@H](NC(=O)[C@H](CC(C)C)NC(=O)[C@H](Cc1ccccc1)NC(=O)[C@@H](N)CO)C(=O)N[C@@H](CCCN=C(N)N)C(=O)N[C@@H](CC(N)=O)C(=O)O` [SFLLRN] showed an EC50 (PAR1) of 2500 nM.

With `COC(=O)[C@H](c1ccccc1Cl)N1CCc2sccc2C1` [clopidogrel] the “Protection against arterial occlusion when used alone” value (guinea pigs) was “non-significant protection”.

In the case of `CCOC(=O)N[C@@H]1CC[C@@H]2[C@@H](C1)C[C@H]1C(=O)O[C@H](C)[C@H]1[C@H]2/C=C/c1ccc(-c2cccc(F)c2)cn1` [vorapaxar], the “Pharmacodynamic (PD) half life / duration of inhibition of platelet function” value ([1]; single loading dose) is listed as “up to 3 weeks” and the Plasma half-life [1] is listed as 120 to 264 h.
